How the values were obtained:
[1] = tested on: adipose prone mice of the C57BL/6J strain; assay: Animal model of metabolic syndrome, adipose prone mice on high-fat diet, 4 months of dietary interventions; type: in vivo; settings: for Body weight / Body wt. gain / NEFA / Insulin / TAGs: 4 months; for AUCglucose: intraperitoneal glucose tolerance test; for Insulin: plasma; for TAGs: serum
Experimental: An animal model of the metabolic syndrome using the adipose prone mice of the C57BL/6J strain was used to document effects on typical laboratory and pathological anatomical features common for the metabolic syndrome. When given a high fat diet containing about 60% of fat, the animals are getting obese developing high insulin plasma levels, pathological glucose tolerance test, elevated serum triglycerides and non-esterified fatty acids, and fat liver. All experiments were performed on male C57BL/6 mice, either a substrain C57BL/N (supplier: Charles River, Germany, n=160, experiments A-C, see below), or a substrain C57BL/6J (supplier: the Jackson laboratory, Bar Harbor, Me., USA, n=32, experiment D). Total numbers of animals used were higher (n=170 and 36, respectively), because of culling. In the latter case, animals were bred for several generations (<20) at the Institute of Physiology. At the beginning of the treatment, animals were 14-week-old and their body weight range was 23.6-27.1 g. One week before the study start, animals were sorted according to their body weight and assigned to subgroups (n=8) of similar mean body weight. […] The animals eliminated from the study at this stage were sacrificed by cervical dislocation. Complete health check of mice was performed by the supplier Charles River and at the start of study serological tests were performed by ANLAB (Prague, Czech Republic). In addition, regular health checks were performed in the animal house in 3-mo-intervals using sentinel mice and serological examinations (ANLAB). In all the tests, the animals were free of specific pathogens. […] All these compounds were in the form of ethyl esters, provided by Pronova Biocare a.s. in sealed containers. Chemical composition of the PRB-compounds was unknown to the laboratory performing the experiments (Institute of Physiology, Academy of Sciences Prague, Czech Republic). After arrival, the PRB-compound were stored in a refrigerator in original containers. The containers were opened just before preparation of the experimental diets. Diets were kept in plastic bags flushed by nitrogen and stored at −70° C. in small aliquots sufficient for feeding animals for one week. Fresh ratios were given in 2-day intervals or daily. The study was based on 4 individual experiments. […] In each experiment, a subgroup of plain cHF diet-fed mice was included and served as a control. Mice were caged in groups of 4 and fed standard chow diet until 3 mo of age, when animals (n=8-13) were randomly assigned to the different test diets. […] Animals were sacrificed after 4 months on the experimental diets, at 7 mo of age, and the end-point analysis were performed.

[2] = tested on: liver steatosis in mice fed high fat diet; assay: Testing of DHA derivatives on liver fat (histology); type: in vivo; settings: eosin-hematoxylin stained liver
From the text: Tissue samples from animals in the experiments with DHA derivatives was histologically analysed. After paraffination, tissue samples from liver, adipose tissue, skeletal muscle, pancreas, and kidney were stained with eosin-hematoxylin.

[3] = target: T1, PPARγ (Homo sapiens, UniProt P37231); assay: Affinity testing in transfected cells (luciferase release); type: cell-based; settings: 10 μM, FIG. 3
T1 construct: For full length PPAR transfection studies, each well received 5 μg reporter construct; expressed in transfected cells; host or cells: COS-1 cells (adipocytes transfected with pSG5-PPARγ are also described)
T1 sequence (P37231 1-505): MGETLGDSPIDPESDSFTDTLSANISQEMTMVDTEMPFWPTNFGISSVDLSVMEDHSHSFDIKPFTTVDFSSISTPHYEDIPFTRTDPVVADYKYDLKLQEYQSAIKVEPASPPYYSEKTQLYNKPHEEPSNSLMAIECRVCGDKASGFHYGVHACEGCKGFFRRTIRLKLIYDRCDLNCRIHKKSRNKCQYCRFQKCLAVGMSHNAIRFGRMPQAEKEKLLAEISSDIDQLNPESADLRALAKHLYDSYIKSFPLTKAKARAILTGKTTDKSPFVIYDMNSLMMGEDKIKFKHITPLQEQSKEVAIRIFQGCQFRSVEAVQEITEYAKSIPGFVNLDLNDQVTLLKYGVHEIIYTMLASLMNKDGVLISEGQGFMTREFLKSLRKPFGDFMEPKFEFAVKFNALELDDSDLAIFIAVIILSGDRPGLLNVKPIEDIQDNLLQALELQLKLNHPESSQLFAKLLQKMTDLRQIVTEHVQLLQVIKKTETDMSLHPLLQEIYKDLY
Experimental: Release of luciferase is correlated to transcription of genes. Binding of a ligand to a nuclear receptor such as PPARγ induces transcription of the respective gene thereby releasing luciferase. This technique therefore provides a measure of ligand affinity to the receptor as well as activation of the responsible gene.
Transient transfection of COS-1 cells was performed in 6-well plates as described by Graham and van der Eb (Graham). For full length PPAR transfection studies, each well received 5 μg reporter construct, 2.5 μg pSV-β-galactosidase as an internal control, 0.4 μg pSG5-PPARγ2. The cells were harvested after 72 h, and the luciferase activity was measured according to the protocol (Promega). The luciferase activity was normalised against β-galactosidase activity. The adipocytes were transfected at D11 of differentiation using 16 μL LipofectaminPlus reagent, 4 μl Lipofectamine (Life Technologies Inc.), 0.2 μg pSG5-PPARγ, and 100 ng pTK Renilla luciferase as control of transfection afficiency. […] The luciferase activities were measured as recommended by the manufacturer (Dual Luciferase assay, Promega). […]
Fatty acids (BRL or DHA) and PRB-1 (stock solutions) were solubilized to 0.1 M final concentration in DMSO. […] Luciferase activity was measured using a luminometer (TD-20/20 luminometer; Turner Designs, Sunnycvale, Calif.) and normalized against protein content.

[4] = Analysis of intracellular free (non-esterified) fatty acids in liver of animals fed PRB-1; type: in vivo, mice; settings: liver tissue, 1.5% of the fat content in diet for 8 weeks
Experimental: Liver tissue from animals fed PRB-1 was analysed with respect to free unesterified fatty acids. The animals were recruited from Experiment 4 (pharmacodynamic effects of DHA derivatives in an animal model of metabolic syndrome). The animals had been given DHA (15% of fat content of the diet) or the DHA-derivative (1.5% of the fat content in their diet) for 8 weeks and were supposed to be in a steady-state situation with stable levels of DHA and the DHA-derivative intracellularly. Liver tissue was chosen due to the fact that the metabolisation rate is very high in liver.
The liver samples were homogenized in cold PBS buffer, and extracted immediately with chloroform:methanol (2:1) containing 0.2 mM butylated hydroxytoluene (BHT) using cis-10-heptadecenoic acid as internal standard. […] Total protein content was measured using Bio-Rad method after homogenization.
Agilent 1100 system was used for reverse phase column (Supelco Ascentis C18 column, 25 cm×4.6 mm, i.d. 5 μm) separation within 22 min. […] The column elute was identified and quantified in the negative electrospray ionisation applying multiple reaction monitoring mode by triple tandem quadrapole mass/mass (ABI Qtrap-4000). […] The quadratic regression standard curve was used for quantification after internal standard calibration.

[5] = 0.15% of fat content of cHF diet
[6] = 0.5% of fat content of cHF diet
[7] = 1.5% of fat content of cHF diet

Row | SMILES | Fasted glucose [1, 5] [mg/dL] | Body weight [1, 5] [grams] | NEFA [1, 5] [mmol/L] | AUCglucose [1, 5] [mM × 180 min] | TAGs [1, 5] [mmol/L] | Fasted glucose [1, 6] [mg/dL] | Body weight [1, 6] [grams] | Body wt. gain [1, 6] [grams] | NEFA [1, 6] [mmol/L] | AUCglucose [1, 6] [mM × 180 min] | Insulin [1, 6] [ng/mL] | TAGs [1, 6] [mmol/L] | Fasted glucose [1, 7] [mg/dL] | Body weight [1, 7] [grams] | Body wt. gain [1, 7] [grams] | NEFA [1, 7] [mmol/L] | TAGs [1, 7] [mmol/L] | other results
1 | CC/C=C\C/C=C\C/C=C\C/C=C\C/C=C\C/C=C\CCC(=O)O [DHA, (all-Z)-4,7,10,13,16,19-docosahexaenoic acid] | 141 ± 10 | 48.3 ± 0.6 | 0.96 ± 0.07 | 1477 ± 214 | 1.50 ± 0.13 | 136 ± 8 | 46.9 ± 0.7 | 22.9 ± 0.7 | 0.89 ± 0.03 | 1816 ± 182 | 5.82 ± 0.47 | 1.78 ± 0.08 | 138 ± 7 | 47.1 ± 0.7 | 23.0 ± 0.8 | 0.98 ± 0.07 | 1.91 ± 0.26 | Body wt. gain [1, 5]: 24.3 ± 0.8 grams; Insulin [1, 5]: 4.31 ± 0.39 ng/mL; AUCglucose [1, 7]: 2132 ± 288 mM × 180 min; Insulin [1, 7]: 6.55 ± 0.31 ng/mL
2 | CC/C=C\C/C=C\C/C=C\C/C=C\C/C=C\C/C=C\CC(C)C(=O)OCC (stereo not drawn) [PRB-1, α-methyl DHA EE] | 126 ± 15 | 47.2 ± 1.3 | 0.62 ± 0.04 | 1291 ± 172 | 1.75 ± 0.08 | 131 ± 7 | 47.4 ± 0.6 | 23.8 ± 0.5 | 0.73 ± 0.04 | 1596 ± 205 | 3.93 ± 0.59 | 2.03 ± 0.22 | 130 ± 14 | 44.0 ± 1.5 | 20.2 ± 1.3 | 0.63 ± 0.03 | 1.58 ± 0.08 | degree of fat liver (liver steatosis), histology [2]: low degree of fat liver; release of luciferase from transfected cells [3]: high release of luciferase; concentration of the DHA-derivative (free unesterified fatty acid) in the liver cells [4]: about 10 μg per g of total amount of protein
